Legend:
LPA3 receptor = target: T1, LPA3 receptor (Homo sapiens, UniProt Q9UBY5); assay: Intracellular free Ca2+ (Fura-2AM) in LPA3-expressing B103 cells; format: cell-based; details: LPA3-expressing B103 cells; for increase of intracellular calcium level: ginsenosides each 10 μM
T1 construct: host or cells: B103 rat neuroblastoma cells
T1 sequence (Q9UBY5 1-353): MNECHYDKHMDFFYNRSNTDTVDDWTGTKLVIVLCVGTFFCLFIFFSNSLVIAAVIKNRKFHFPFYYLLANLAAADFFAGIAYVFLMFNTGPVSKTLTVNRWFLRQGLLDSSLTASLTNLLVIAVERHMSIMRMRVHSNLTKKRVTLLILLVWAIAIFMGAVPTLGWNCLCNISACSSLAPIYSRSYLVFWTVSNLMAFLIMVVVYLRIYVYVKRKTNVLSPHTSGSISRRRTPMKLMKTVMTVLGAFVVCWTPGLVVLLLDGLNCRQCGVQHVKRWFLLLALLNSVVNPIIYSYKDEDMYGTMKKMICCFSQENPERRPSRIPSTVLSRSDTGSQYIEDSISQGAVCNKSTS
Source text: (§1) LPA family receptors are endogenous to cells of most organs. B103 rat neuroblastoma cells, known as LPA receptor-null cells (Valentine et al., Biochim Biophys Acta 1780. 597-605) were transiently transfected with a plasmid (vector) carrying one of genes coding for LPA1(edg-2), LPA2(edg-4), LPA3(edg-7), LPA4, LPA5 and LPA6 receptors or a plasmid carrying none of them (empty vector). Two or three days after transfection, the cells are suspended, and made permeable. Then, the permeable cells are treated with Fura-2AM, a fluorescent dye binding to calcium, and then with gintonin, followed by spectrofluorephotometry to examine whether gintonin induces an increase in intracellular free Ca^2+ level.
(§2) (1) preparing large quantities of plasmids carrying respective LPA family receptor genes and an empty plasmid carrying none of them through amplification and purification (maxi-preparation); (2) verifying the expression of LPA receptors wherein B103 cells are transfected with haematoglutin (HA)-tagged LPA receptors, and then subjected to Western blotting analysis using an anti-HA primary antibody and a horseradish peroxidase (HRP)-conjugated secondary antibody to develop a color; (3) verifying the expression of LPA receptors wherein B1-3 cells are transfected with haematoglutin (HA)-tagged LPA receptors, and then subjected to confocal laser microscopy using an anti-HA antibody and a fluorescence dye Cy3-conjugated secondary antibody; (4) transfecting the empty plasmid and each of the plasmids carrying LPA family receptor genes into B103 cells; (5) treating the transfected B103 cells with trypsin (0.05% trypsin with EDTA, w/v) 2-3 days post-transfection, to give a cell suspension; (6) culturing the suspended B103 cells with Fura-2AM (2.5 μM); and (7) treating the suspended B103 cells with gintonin and quantifying a change in intracellular free Ca^2+ level in a cuvette by spectrofluorephotometry using Fura-2AM.
(§3) Human LPA (lysophosphatidic acid) receptor subtypes, orphan GPCRs (G protein coupled receptors) and plasmids carrying GPCRs were purchased from Missouri S&T resource Center (www.cDNA.org).
(§4) The transient transfection of LPA receptor subtypes was carried out with the aid of Lipofectamine 2000 of Invitrogen. A plasmid (10.8 μg) carrying each LPA receptor (LPA1, LPA2, LPA3, LPA4, LPA5, and LPA6) was transfected into B103 cells grown in 10-cm dishes, and incubated for 2 days prior for use in experiments.
In this Example, gintonin, or ginsenoside Rb1 or Rg1 was examined for its ability to induce a transient increase of [Ca^2+]i in Fura-2AM-loaded B103 cells which were transfected with LPA receptors and in Fura-2AM-loaded B103 cells which were not transfected with LPA receptors. To this end, B103 cells (2˜4×10^6/ml) pre-treated with Fura-2AM were suspended in a 1.5 mM Ca^2+-containing buffer or Ca^2+-free buffer, and incubated 37° C. for 30 min, followed by analyzing intracellular calcium levels in the B103 cells in the presence of gintonin or ginsenosides.
Briefly, B103 cells (1˜2×10^6/ml) were mixed with 2.5 μM Fura 2-AM in a Ca^2+ buffer (pH 7.4) containing NaCl 120 mM, KCl 5 mM, MgCl2 1 mM, CaCl2 1.5 mM, glucose 10 mM, and HEPES 25 mM, and a Ca^2+ free buffer (pH 7.4) containing NaCl 120 mM, KCl 5 mM, MgCl2 1 mM, EGTA 0.2 mM, glucose 10 mM, and HEPES 25 mM at 37° C. for 30 min in water bath with shaking according to the Jørgensen method, and washed three times with Ca^2+ buffer or Ca^2+ free buffer to remove excess Fura-2AM.
[Ca^2+]i was estimated in Fura 2AM-loaded cells in suspension using an RF-5300PC intracellular ion measurement system (Shimadzu Corporation, Japan).
Briefly, Fura 2-AM loaded cells were diluted with an experimental medium to a final density of 2˜4×10^6 cells/mL, and transferred to polystyrene cuvettes (Elkay Ultra-VU). The cells were stirred using Teflon-coated magnets, and the cuvette housing was thermostatically controlled at 37° C. The excitation wavelengths were alternated between 340 and 380 nm under computer control. […]

mice = assay: Busulfan-caused diarrhea and mucositis in mice; format: in vivo, mouse; details: busulfan 40 mg/kg i.p.; for Diarrhea (cases / mice) / Mucositis (cases / mice): gintonin 100 mg/kg oral 3 days before, observed 10 days
Description: In this Example, an examination was made of the inhibitory activity of gintonin against chemotherapy-induced diarrhea and mucositis. For this, gintonin-treated mice were administered with busulfan, and observed for diarrhea and mucostitis.
Briefly, mice were orally administered at a dose of 100 mg/kg with gintonin 3 days before intraperitoneal injection with busulfan (40 mg/kg). For the control, physiological saline was used, instead of gintonin.

endogenous CaCC = assay: Endogenous Ca2+-activated channel (CaCC) activation in Xenopus oocytes; format: cell-based, Xenopus laevis; details: Kil6425 10 μM; U73122 1 μM; 2-APB 100 μM; BAPTA 100 μM 3 h
BKCaK+ channels = assay: BKCa K+ channel activity in Xenopus oocytes, two-electrode voltage clamp; format: cell-based; details: 2-APB 100 μM, BAPTA-AM, PMA 1 μM; for effect on gintonin-induced BKCaK+ channel activation: Kil6425 10 μM, U73122, U73343 1 μM
Description: (§5) Xenopus laevis frogs were obtained from Xenopus I (Ann Arbor, Mich.). Their care and handling were in accordance with the highest standards of institutional guidelines. To isolate oocytes, the frogs were operated on under anesthesia with an aerated solution of 3-aminobenzoic acid ethyl ester. Oocytes were separated by treatment with collagenase and agitation for two hours in a Ca^2+-free medium containing 82.5 mM NaCl, 2 mM KCl, 1 mM MgCl2, 5 mM HEPES, 2.5 mM sodium pyruvate, 100 units/ml penicillin and 100 μg/ml streptomycin.
(§6) Stage V-VI oocytes were collected and stored in ND96 (96 mM NaCl, 2 mM KCl, 1 mM MgCl2, 1.8 mM CaCl2, and 5 mM HEPES, pH 7.4) supplemented with 50 μg/ml gentamicin. This oocyte containing solution was maintained at 18° C. with continuous gentle shaking while the ND96 medium was changed with a fresh one every day.
Two-electrode voltage-clamp recordings were obtained from individual oocytes placed in a small Plexiglas net chamber (5 ml). Electrophysiological experiments were performed using microelectrodes filled with 3 M KCl (resistance of 0.2-0.7 MΩ) and an Oocyte Clamp amplifier (OC-725C; Warner Instrument, CT, USA) to record BKc K^+ channel activity at room temperature (Choi et al., Mol Cells 31, 133-140, 2011). For physiological recordings of BKCaK^+ channel activity, oocytes were first perfused with a Cl^−- and Ca^2+-free solution (mM: 96 NaOH, 2 KOH, 8 Mg-gluconate, 5 HEPES, 5 EGTA, pH 7.4 with methanesulfonic acid) supplemented with 500 μM anthracene-9-carboxylic acid, a Cl^− channel blocker, to block endogenous Cl-channels (Lu et al., J. Biol. Chem. 265, 16190-16194.1990). Then, the oocytes were clamped at −80 mV holding potential, followed by step depolarization from the holding potential to +40 mV at regular intervals of […] for 400 ms to record outward currents.

[1] = tested on: NMDA receptors (NR1 and NR2); assay: NMDA receptor activity in Xenopus oocytes, two-electrode voltage clamp; format: cell-based; details: Kil6425 10 μM, 2-APB 100 μM, BAPTA 100 μM 3 h; for effect on gintonin-induced NMDA receptor activation: gintonin 1 μg/ml, U73122, U73343 1 μM, genistein 10 μM, PP2, PP3 30 μM
Description: cDNAs of NMDA receptor subunits (NR1 and NR2) were employed (Zheng et al., J Neurosci. 17, 8676-8686, 1997). cDNAs (100 ng/40 nl) corresponding to respective NMDA receptor subunits (NR1 and NR2) were injected into animal or vegetal poles of oocytes by use of a […] (VWR Scientific, USA) and incubated for 4-5 days after injection (Zheng et al., J Neurosci. 17, 8676-8686, 1997).
as §5
as §6, with “changed to” for “changed with”
Two-electrode voltage-clamp recordings were obtained from individual oocytes placed in a small Plexiglas net chamber (5 ml). Electrophysiological experiments were performed using microelectrodes filled with 3 M KCl (resistance of 0.2-0.7 MΩ) and an Oocyte Clamp amplifier (OC-725C; Warner Instrument, Hamden, Conn.). For physiological recordings of NMDA receptor activity, oocytes were first perfused with Mg^2+-free ND96 (mM: 96 NaOH, 2 KOH, 0.3 CaCl2, 5 HEPES pH 7.6 with methanesulfonic acid). Then, the oocytes were clamped at −60 mV holding potential, followed by recoding NMDA currents (induced by administering […]) (Zheng et al., J Neurosci. 17, 8676-8686, 1997; Chang and Kuo, J Neurosci. 28, 1546-1556, 2008).

LPA2 receptor = LPA2 receptor (Homo sapiens, UniProt Q9HBW0); assay: Intracellular free Ca2+ (Fura-2AM) in LPA2-expressing B103 cells; format: cell-based; parameters: host or cells: B103 rat neuroblastoma cells; details: LPA2-expressing B103 cells
LPA2 receptor, sequence (Q9HBW0 whole entry): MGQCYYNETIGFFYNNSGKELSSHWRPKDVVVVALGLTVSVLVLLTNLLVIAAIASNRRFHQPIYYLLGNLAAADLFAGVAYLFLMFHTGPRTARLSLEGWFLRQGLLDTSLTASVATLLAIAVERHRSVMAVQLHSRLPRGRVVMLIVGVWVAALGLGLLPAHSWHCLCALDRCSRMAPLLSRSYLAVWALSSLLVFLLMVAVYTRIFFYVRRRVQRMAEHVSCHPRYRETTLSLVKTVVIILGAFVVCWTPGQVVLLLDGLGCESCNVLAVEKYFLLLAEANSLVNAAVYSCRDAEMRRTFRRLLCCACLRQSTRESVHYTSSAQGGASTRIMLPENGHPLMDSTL
Source text: as §1, §2, §3, §4
In this Example, gintonin, or ginsenoside Rb1 or Rg1 was examined for its ability to induce a transient increase of [Ca^2+]i in Fura-2AM-loaded B103 cells which were transfected with LPA receptors and in Fura-2AM-loaded B103 cells which were not transfected with LPA receptors. […]

Molecule: CC(C)=CCC[C@](C)(O[C@@H]1O[C@H](CO)[C@@H](O)[C@H](O)[C@H]1O)[C@H]1CC[C@]2(C)[C@@H]1[C@H](O)C[C@@H]1[C@@]3(C)CC[C@H](O)C(C)(C)[C@@H]3[C@@H](O[C@@H]3O[C@H](CO)[C@@H](O)[C@H](O)[C@H]3O)C[C@]12C [Rg1, ginsenoside Rg1]
- increase of intracellular calcium level (LPA3 receptor): no increased intracellular calcium levels were detected

Molecule: CS(=O)(=O)OCCCCOS(C)(=O)=O [Busulfan, busulfan, reference compound]
- diarrhea morbidity rate (mice; gintonin 100 mg/kg oral): 53.3%
- perianal mucositis morbidity (mice; gintonin 100 mg/kg oral): 46.7%
- Diarrhea (cases / mice) (mice): 8/15
- Mucositis (cases / mice) (mice): 7/15
- Mucositis (cases / mice) (mice; listed as bufulfan): 7
- Diarrhea (cases / mice) (mice; listed as busulfan): 8

Molecule: NCCOB(c1ccccc1)c1ccccc1 [2-APB]
- effect on gintonin-induced CaCC activation (endogenous CaCC): suppressed gintonin-induced CaCC activation
- effect on gintonin-induced BKCaK+ channel activation (BKCaK+ channels): blocked gintonin-induced BKCaK^+ channel activation
- effect on ginsenoside Rg3-induced BKCaK+ channel activity (BKCaK+ channels; U73122 1 μM): not blocked
- effect on NMDA-induced inward current ([1]; U73122 1 μM): did not block NMDA-induced inward current
- effect on gintonin-induced NMDA receptor activation [1]: blocked gintonin-induced NMDA receptor activation
- effect on gintonin-induced intracellular calcium increase (LPA2 receptor): blocked

Molecule: pertussis toxin [PTX]
- lowering of gintonin-induced increase of intracellular calcium level (LPA3 receptor; PTX 200 μg/ml, 16 hrs pretreatment, vs cells not treated with PTX): 25%

Molecule: CC(C)(C)n1nc(-c2ccc(Cl)cc2)c2c(N)ncnc21 [PP2]
- effect on gintonin-induced NMDA receptor activation [1]: blocked the action of gintonin

Molecule: COc1ccc2c(c1)CC[C@@H]1[C@@H]2CC[C@]2(C)[C@@H](NCCCCCCN3C(=O)CCC3=O)CC[C@@H]12 [U73343]
- effect on gintonin-induced BKCaK+ channel activation (BKCaK+ channels): did not block gintonin-induced BKCaK^+ channel activation
- effect on gintonin-induced NMDA receptor activation [1]: did not block gintonin-induced NMDA receptor activation

Molecule: CC(C)=CCC[C@](C)(O)[C@H]1CC[C@]2(C)[C@@H]1[C@H](O)C[C@@H]1[C@@]3(C)CC[C@H](O[C@@H]4O[C@H](CO)[C@@H](O)[C@H](O)[C@H]4O[C@@H]4O[C@H](CO)[C@@H](O)[C@H](O)[C@H]4O)C(C)(C)[C@@H]3CC[C@]12C [Rg3, ginsenoside Rg3]
- increase of intracellular calcium level (LPA3 receptor): no increased intracellular calcium levels were detected

Molecule: CC(C)=CCC[C@](C)(O[C@@H]1O[C@H](CO[C@@H]2O[C@H](CO)[C@@H](O)[C@H](O)[C@H]2O)[C@@H](O)[C@H](O)[C@H]1O)[C@H]1CC[C@]2(C)[C@@H]1[C@H](O)C[C@@H]1[C@@]3(C)CC[C@H](O[C@@H]4O[C@H](CO)[C@@H](O)[C@H](O)[C@H]4O[C@@H]4O[C@H](CO)[C@@H](O)[C@H](O)[C@H]4O)C(C)(C)[C@@H]3CC[C@]12C [Rb1, ginsenoside Rb1]
- increase of intracellular calcium level (LPA3 receptor): no increased intracellular calcium levels were detected

Molecule: Nc1ncnc2c1cnn2-c1ccccc1 [PP3]
- effect on gintonin-induced NMDA receptor activation [1]: did not show inhibitory activity

Molecule: O=c1c(-c2ccc(O)cc2)coc2cc(O)cc(O)c12 [Genistein]
- effect on gintonin-induced NMDA receptor activation [1]: inhibit gintonin-induced NMDA receptor activation
